Measurements taken from patent US20130065818A1, “Arylamide Compounds And Compositions And Uses Thereof” (POLYMEDIX, priority 2006, published 2013).
Several values for one entry are separate records, joined by “and”; a condition that tells them apart may be missing. Identical values can stand only once. One block for each molecule: values may come before it.

Experiments:
[1] = system: fluoroquinolone-resistant, methicillin-resistant Staphylococcus aureus (K950); assay: NZW rabbit keratitis model, corneal colony counts; format: in vivo; conditions: for Corneal colony count, Mean / Corneal colony count, Median / Corneal colony count, TrMean: N=3; for Corneal colony count, log / Corneal colony count: individual corneas; for Corneal colony count: Inoculum = 1048 cfu/cornea, 1 hour after final drop; for Log10 CFU/ml, group comparison (Duncan Multiple Comparisons Test): P = 0.05, < = significantly fewer colony counts
Description: (§1) One purpose of the following experiments was to compare the efficacy of 1% Oligomer 2, 0.5% Oligomer 2, and 5% vancomycin in the treatment of a fluoroquinolone-resistant, methicillin-resistant Staphylococcus aureus infection in the NZW rabbit keratitis model with or without intact corneal epithelia.
Nothing was done to the right eyes.
as §1, with “0.25%” for “1%”, “with and without 0.005% benzalkonium chloride,” for “0.5% Oligomer 2,”, “epithelia. The 0.005% benzalkonium chloride has been added to try to increase the penetration of 0.25% Oligomer 2 through the corneal epithelium.” for “epithelia.”
One purpose of the following experiments was to determine the efficacy of 0.25% Oligomer 4, with and without 200 μM Farnesol, and 200 μM Farnesol in the treatment of a fluoroquinolone-resistant and methicillin-resistant Staphylococcus aureus infection in the NZW rabbit keratitis model with or without intact corneal epithelia. The 200 μM Farnesol has been added to try to increase the efficacy and penetration of 0.25% Oligomer 4 through the corneal epithelium.

[2] = NZW rabbit keratitis model, clinical evaluation (Total Ocular Score); conditions: for Chemosis score / Conj. score / Corneal Edema score / Corneal Infiltrate score / Discharge score / Iritis score / Total Score: individual eyes, Ker-1, drops every 15 min, 19 doses; for Chemosis score / Conj. score / Corneal Edema score / Corneal Infiltrate score / Discharge score / Iritis score: scale 0 = Normal to 3.0 = Severe; for Total Score: sum of six signs; for Total Ocular Score, Mean / Total Ocular Score, Median / Total Ocular Score, TrMean: N=3
Description: Fifteen rabbits were received from Myrtles' Rabbitry, Thompson Station, TN. The clinical isolate of fluoroquinolone-resistant, methicillin-resistant (MRSA) Staphylococcus aureus (K950) was subcultured on 5% sheep blood agar and incubated at 37° C. in 6% CO2 overnight. The next morning, the MRSA strain was suspended in sterile trypticase soy broth to a 0.5 McFarland Standard, containing approximately 5×10^8 cfu/ml of bacteria. The absorbance of the suspension was measured at 650 nm using a Beckman DU-70 spectrophotometer. OD readings of 0.07 corresponded to 5×10^8 cfu/ml of bacteria. This concentration was appropriately diluted in sterile trypticase soy broth to provide the inoculum of approximately 1,000 (1.0×10^3) cfu/eye in 25 μl. Colony counts were performed on the inoculum to determine the actual cfu inoculated. Following general anesthesia with ketamine and xylazine and topical anesthesia with proparacaine and prior to bacterial inoculation in the left eyes, 6 mm areas of the corneal epithelia was removed centrally with an Amoils epithelial scrubber. Nothing was done to the right eyes. The 15 rabbits were then inoculated intrastromally in both eyes with 25 μl of the bacterial dilution of approximately 10^3 cfu/eye of the bacteria. The bacterial inoculation of the left eyes was directly under the epithelial defect created by the Amoils epithelial scrubber. The epithelia were removed in the left corneas in order to determine whether this layer of the cornea is a barrier for Oligomer 2 penetration when compared to the right cornea with an intact epithelium. A colony count was done on the inoculum to determine the actual cfu inoculated. The rabbits were immediately treated with analgesia in the form of and intramuscular injection of ketoprofen, 1.5 mg/kg. After 4 hours, the 15 rabbits were divided into 4 treatment groups and one untreated control group sacrificed at the onset of therapy. Both eyes of each rabbit of the treatment groups were treated with one 37 μl drop of the coded solutions or control Saline or 1 drop of vancomycin from its dropper bottle. The Oligomer 2 concentrations were masked and labeled as 1 and 2. The masked concentrations were 1% Oligomer 2 and 0.5% Oligomer 2 but the specific concentrations of solutions were not known to the lab workers who carried out the experiment. The vancomycin and control (Tris-Buffered Saline) were not masked.
Treatment was scheduled for every 15 minutes for 5 hours (21 total doses). However, PMX-1 and PMX-2 were exhausted after the 19th dose. Therefore, the actual treatment was 15 minutes for 4.5 hours (19 total doses). The 3 rabbits in group V were sacrificed 4 hours PI and large 9.5 mm buttons were removed from the corneas. These were placed in 1 ml of PBS and kept on ice. The corneal buttons were homogenized for 25 seconds on ice using the motorized homogenizer. After homogenization, colony counts were done on the homogenates using 5% sheep blood agar plates to determine the amount of bacteria contained in the corneas at the onset of therapy. Following the completion of therapy, the eyes were examined for clinical signs of infection. One hour after the final treatment, the treated rabbits (Groups I-IV) were sacrificed and large 9.5 mm buttons were removed from the corneas. These were placed in 1 ml of PBS and kept on ice. The corneal buttons were homogenized for 25 seconds on ice using the motorized homogenizer. After homogenization, colony counts were performed on the homogenates using 5% sheep blood agar plates to determine the amount of bacteria contained in the corneas after treatment. The next morning, the plates were counted and the number of cfu/eye of Staphylococcus aureus was determined for each cornea.
Fifteen rabbits were received from Myrtles' Rabbitry, Thompson Station, TN.

P. aeruginosa (PA) = assay: MIC of clinical ocular isolates (Example 1); format: cell-based; conditions: Pseudomonas aeruginosa; PA clinical ocular isolates (n=26)
CS S. epidermidis (CSSE) = assay: MIC of clinical ocular isolates (Example 1); format: cell-based; conditions: Staphylococcus epidermidis; CSSE clinical ocular isolates (n=26)
H. influenzae (HI) = assay: MIC of clinical ocular isolates (Example 1); format: cell-based; conditions: Haemophilus influenzae; HI clinical ocular isolates (n=26)
Serratia marcescens (SM) = assay: MIC of clinical ocular isolates (Example 1); format: cell-based; conditions: SM clinical ocular isolates (n=27)
CR S. epidermidis (CRSE) = assay: MIC of clinical ocular isolates (Example 1); format: cell-based; conditions: Staphylococcus epidermidis; CRSE clinical ocular isolates (n=26)
[3] = system: Ciprofloxacin Susceptible (CS) S. aureus (CSSA); assay: MIC of clinical ocular isolates (Example 1); format: cell-based; conditions: Staphylococcus aureus; CSSA clinical ocular isolates (n=27)
St. viridans group (SV) = assay: MIC of clinical ocular isolates (Example 1); format: cell-based; conditions: Streptococcus viridans
St. pneumoniae (SP) = assay: MIC of clinical ocular isolates (Example 1); format: cell-based; conditions: Streptococcus pneumoniae; SP clinical ocular isolates (n=27)
Moraxella Species (MS) = assay: MIC of clinical ocular isolates (Example 1); format: cell-based; conditions: MS clinical ocular isolates (n=25)
[4] = system: Ciprofloxacin Resistant (CR) S. aureus (CRSA); assay: MIC of clinical ocular isolates (Example 1); format: cell-based; conditions: Staphylococcus aureus; CRSA clinical ocular isolates (n=28)

Structure (SMILES): CN[C@H](CC(C)C)C(=O)N[C@H]1C(=O)N[C@@H](CC(N)=O)C(=O)N[C@H]2C(=O)N[C@H]3C(=O)N[C@H](C(=O)N[C@H](C(=O)O)c4cc(O)cc(O)c4-c4cc3ccc4O)[C@H](O)c3ccc(c(Cl)c3)Oc3cc2cc(c3O[C@@H]2O[C@H](CO)[C@@H](O)[C@H](O)[C@H]2O[C@H]2C[C@](C)(N)[C@H](O)[C@H](C)O2)Oc2ccc(cc2Cl)[C@H]1O [VAN]
Corneal colony count, Mean ([1]; Abraded Epithelium): 2.674 Log10 CFU/ml
Corneal colony count, Median ([1]; Abraded Epithelium): 2.845 Log10 CFU/ml
Corneal colony count, TrMean ([1]; Abraded Epithelium): 2.674 Log10 CFU/ml
Corneal colony count, log ([1]; Abraded Epithelium): 2.301 Log10 CFU/ml and 2.845 Log10 CFU/ml and 2.875 Log10 CFU/ml
Corneal colony count ([1]; Abraded Epithelium): 200 CFU/ml and 700 CFU/ml and 750 CFU/ml
Log10 CFU/ml, group comparison (Duncan Multiple Comparisons Test) ([1]; Abraded Epithelium): PMX-2 = VAN = PMX-1 < ONSET = CON
Corneal colony count, Mean ([1]; Intact Epithelium): 2.7239 Log10 CFU/ml
Corneal colony count, Median ([1]; Intact Epithelium): 2.7404 Log10 CFU/ml
Corneal colony count, TrMean ([1]; Intact Epithelium): 2.7239 Log10 CFU/ml
Corneal colony count, log ([1]; Intact Epithelium): 2.74 Log10 CFU/ml and 2.653 Log10 CFU/ml and 2.778 Log10 CFU/ml
Corneal colony count ([1]; Intact Epithelium): 550 CFU/ml and 450 CFU/ml and 600 CFU/ml
Log10 CFU/ml, group comparison (Duncan Multiple Comparisons Test) ([1]; Intact Epithelium): VAN < PMX-1 = PMX-2 = ONSET = CON
Chemosis score ([2]; Abraded Epithelium (AE)): 3.0 and 2.5 (2×)
Conj. score ([2]; Abraded Epithelium (AE)): 3.0 and 2.5 (2×)
Corneal Edema score ([2]; Abraded Epithelium (AE)): 0.5 and 1.0 (2×)
Corneal Infiltrate score ([2]; Abraded Epithelium (AE)): 0.5 and 0 (2×)
Discharge score ([2]; Abraded Epithelium (AE)): 3.0 and 2.0 and 2.5
Iritis score ([2]; Abraded Epithelium (AE)): 1.0 and 1.5 (2×)
Total Score ([2]; Abraded Epithelium (AE)): 11.0 and 9.5 and 10.0
Total Ocular Score, Mean ([2]; Abraded Epithelium): 10.167
Total Ocular Score, Median ([2]; Abraded Epithelium): 10.000
Total Ocular Score, TrMean ([2]; Abraded Epithelium): 10.167
Total Ocular Score, group comparison (Duncan Multiple Comparisons Test) ([2]; IE and AE groups, P = 0.05): CON IE = CON AE < VAN AE = PMX-1AE = PMX-2AE = VAN IE < PMX-1 IE = PMX-2 IE
Chemosis score ([2]; Intact Epithelium (IE)): 3.0
Conj. score ([2]; Intact Epithelium (IE)): 2.5 and 3.0 (2×)
Corneal Edema score ([2]; Intact Epithelium (IE)): 1.0
Corneal Infiltrate score ([2]; Intact Epithelium (IE)): 0 (2×) and 0.5
Discharge score ([2]; Intact Epithelium (IE)): 3.0 (2×) and 2.5
Iritis score ([2]; Intact Epithelium (IE)): 2.0 (2×) and 1.0
Total Score ([2]; Intact Epithelium (IE)): 11.5 and 12.0 and 11.0
Total Ocular Score, Mean ([2]; Intact Epithelium): 11.500
Total Ocular Score, Median ([2]; Intact Epithelium): 11.500
Total Ocular Score, TrMean ([2]; Intact Epithelium): 11.500

MIC50 (P. aeruginosa (PA)): 4 µg/mL
MIC90 (P. aeruginosa (PA)): 8 µg/mL
MIC50 (CS S. epidermidis (CSSE)): 0.03 µg/mL
MIC90 (CS S. epidermidis (CSSE)): 0.125 µg/mL
MIC50 (H. influenzae (HI)): 16 µg/mL
MIC90 (H. influenzae (HI)): 32 µg/mL
MIC50 (Serratia marcescens (SM)): 16 µg/mL
MIC90 (Serratia marcescens (SM)): 64 µg/mL
MIC50 (CR S. epidermidis (CRSE)): 0.03 µg/mL
MIC90 (CR S. epidermidis (CRSE)): 0.03 µg/mL
MIC50 [3]: 0.125 µg/mL
MIC90 [3]: 0.25 µg/mL
MIC50 (St. viridans group (SV)): 4 µg/mL
MIC90 (St. viridans group (SV)): 16 µg/mL
MIC50 (St. pneumoniae (SP)): 0.5 µg/mL
MIC90 (St. pneumoniae (SP)): 1 µg/mL
MIC50 (Moraxella Species (MS)): 0.5 µg/mL
MIC90 (Moraxella Species (MS)): 0.5 µg/mL
MIC50 [4]: 0.25 µg/mL
MIC90 [4]: 0.25 µg/mL
Structure (SMILES): CC(C)(C)c1cc(NC(=O)CCCCNC(=N)N)c(SCCNC(=N)N)c(NC(=O)c2cc(C(=O)Nc3cc(C(C)(C)C)cc(NC(=O)CCCCNC(=N)N)c3SCCNC(=N)N)ncn2)c1 [Oligomer 1]
